Consider 2 compounds from patent US20240124445A1, “BENZENE RING COMPOUND AND USE THEREOF” (NANJING SHIJIANG MEDICINE TECHNOLOGY CO., LTD, priority 2020, published 2024).

Where two headings read alike, the source gives them in different places.

What is called IC50 is the concentration that inhibits the measured activity by half.

In data set [1] the test system is mitochondria permeability transition pore. Briefly: Mitochondria membrane potential difference by TMRM in NCI-H82 cell. It is filed as cell-based, human. To be noted: H2O2 +, CsA none.
Data set [2] has the same test system. Briefly: Mitochondria membrane potential difference by TMRM in Daoy cell. Conditions: H2O2 +, CsA none. In kind it is cell-based, human.
Another data set has as its system MIA PaCa-2. The experiment in a line: Cell viability (CellTiter-Glo) of MIA PaCa-2. In kind it is cell-based. Conditions: Homo sapiens; MIA PaCa-2, pancreatic cancer. As to the method: (§1) Cell viability was detected using the Promega CellTiter-Glo kit, the kit reflected cell viability by directly measuring intracellular ATP content. Different cancer cells was cultured in medium, the 50% inhibiting concentration (IC50) of compound AB24852 on cancer cells was determined using Promega CellTiter-Glo kit. The name, source and culture conditions of each tumor cell line were as follows:
Cell line MIA PaCa-2 (ATCC, No. CRL-1420) was cultured in 10% fetal bovine serum-containing DMEM medium (+P/S).
(In ATP-based viability assays light output follows the ATP content of the culture.)

Another data set has as its system SU-DHL-2. Briefly: Cell viability (CellTiter-Glo) of SU-DHL-2. To be noted: Homo sapiens; SU-DHL-2, lymphoma. It is filed as cell-based. Here is the method: as §1
Cell line SU-DHL-2 (ATCC, No. CRL-2956) was cultured in 10% fetal bovine serum-containing RPMI1640 medium (+P/S).

The test system of a further data set is SF-126. Briefly: Cell viability (CellTiter-Glo) of SF-126. It is filed as cell-based. Conditions: Homo sapiens, 72 h; SF-126, 3 days of culture. As to the method:
(§2) Cell viability was detected using the Promega CellTiter-Glo kit, the kit reflected cell viability by directly measuring intracellular ATP content. In the experiment, the IC50 value of different compounds on different tumor cell lines was detected to determine cell lines that were sensitive or insensitive to different compounds.
(§3) Tumor cells were cultured in 10% FBS-containing medium (+p/s), and incubated for 3 h or the following day, then the gradient diluted compound was added. After 3 days of culture, the relevant IC50 (50% inhibiting concentration) was measured. The name, source and culture conditions of each tumor cell line were as follows: […]

For another data set, the system named is SW48. Briefly: Cell viability (CellTiter-Glo) of SW48. In kind it is cell-based. Conditions: Homo sapiens. Here is the method:
as §1
Cell line SW48 (ATCC, No. CCL-231) was cultured in 10% fetal bovine serum-containing Leibovitz's L-15 medium (+P/S).
as §2, §3

The subject of the next data set is MDA-MB-453. The experiment in a line: Cell viability (CellTiter-Glo) of MDA-MB-453. It is filed as cell-based. To be noted: Homo sapiens. As to the method: as §1
Cell line MDA-MB-453 (ATCC, No. HTB-131) was cultured in 10% fetal bovine serum-containing Leibovitz's L-15 medium (+P/S).
as §2, §3

Another data set relates to 786-O. The experiment in a line: Cell viability (CellTiter-Glo) of 786-O. It is filed as cell-based. To be noted: Homo sapiens, 786-0, 72 h, 3 days of culture. Here is the method: as §2
(§4) Tumor cells were cultured in 10% FBS-containing medium (+p/s), and incubated for 3 h or the following day, then the gradient diluted compound was added. After 3 days of culture, the relevant IC50 (50% inhibiting concentration) was measured. The name, source and culture conditions of each tumor cell line were as follows:
Cell line 786-0 (ATCC, No. CRL-1932) was cultured in 10% fetal bovine serum-containing RPMI1640 medium (+P/S).

Another data set concerns 22RV1. The experiment in a line: Cell viability (CellTiter-Glo) of 22RV1. It is filed as cell-based. To be noted: Homo sapiens; 22RV1, prostatic cancer. Here is the method:
as §1
Cell line 22RV1 (ATCC, No. CRL-2505) was cultured in 10% fetal bovine serum-containing RPMI1640 medium (+P/S).

Another data set concerns G-401. Briefly: Cell viability (CellTiter-Glo) of G-401. In kind it is cell-based. To be noted: Homo sapiens. Here is the method:
as §1
Cell line G-401 (ATCC, No. CRL-1441) was cultured in 10% fetal bovine serum-containing McCoy's 5a medium (+P/S).
as §2, §3

The nature of data set [3]: Stability in human liver microsome. It is filed as in vitro ADME. To be noted: liver microsomes, pH 7.4, 1.5 μM drug solution, NADPH, 37° C., read-out: Human T1/2. Here is the method:
Vortexing for 10 min, the sample was centrifuged with 5594×g for 15 min in centrifuger (Thermo Multifuge×3R). • 10) taking 50 μL supernatant from the centrifuged sample, transferred to 96 well sample plate contain 50 μL water, mixed, and the sample was analyzed using LC-MS/MS.

A further data set has as its system NCI-H1048. Briefly: Cell viability (CellTiter-Glo) of NCI-H1048. It is filed as cell-based. Conditions: Homo sapiens; NCI-H1048, lung cancer. Here is the method: as §1
Cell line NCI-H1048 (ATCC, No. CRL-5853) was cultured in 5% fetal bovine serum-containing HITES medium (+P/S).

For another data set, the system named is GB-1. Briefly: Cell viability (CellTiter-Glo) of GB-1. It is filed as cell-based. Conditions: Homo sapiens, 72 h; GB-1, 3 days of culture. As to the method: as §2, §4
Cell line GB-1 (JCRB, No. IF050489) was cultured in 10% fetal bovine serum-containing DMEM medium (+P/S).

The subject of the next data set is A-375. The experiment in a line: Cell viability (CellTiter-Glo) of A-375. It is filed as cell-based. Conditions: Homo sapiens; A-375, melanoma. Here is the method:
as §1
Cell line A-375 (ATCC, No. CRL-1619) was cultured in 10% fetal bovine serum-containing DMEM medium (+P/S).

A further data set concerns CFPAC-1. Briefly: Cell viability (CellTiter-Glo) of CFPAC-1. It is filed as cell-based. To be noted: Homo sapiens, 72 h; CFPAC-1, 3 days of culture. As to the method:
as §2, §4
Cell line CFPAC-1 (ATCC, No. CRL-1918) was cultured in 10% fetal bovine serum-containing IMDM medium (+P/S).

A further data set deals with OCI-AML-4. The experiment in a line: Cell viability (CellTiter-Glo) of OCI-AML-4. It is filed as cell-based. Conditions: OCI-AML-4, leukemia. As to the method:
as §1
Cell line OCI-AML-4 (DSMZ, No. ACC-729) was cultured in alpha-MEM medium containing 20% fetal bovine serum and 20% volume fraction of 5637 cell line adjusted medium (+P/S).

Another data set concerns SNU-398. Briefly: Cell viability (CellTiter-Glo) of SNU-398. In kind it is cell-based. Conditions: Homo sapiens; SNU-398, liver cancer. Here is the method:
as §1
Cell line SNU-398 (ATCC, number CRL-2233) was cultured in 10% fetal bovine serum-containing RPMI1640 medium (+P/S).

The test system of another data set is NCI-H82 cell. Briefly: Cell viability (Promega CellTiter-Glo) of NCI-H82 cell. In kind it is cell-based. Conditions: Homo sapiens. Here is the method: Cell viability was detected using the Promega CellTiter-Glo kit, the kit reflected cell viability by directly measuring intracellular ATP content. Small cell lung cancer cell NCI-H82 (ATCC, No. HTB-175) was cultured in 10% fetal bovine serum-containing RPMI1640 medium (+P/S).
Cell viability was detected using the Promega CellTiter-Glo kit, the kit reflected cell viability by directly measuring intracellular ATP content.
Daoy cell was cultured in 10% fetal bovine serum-containing DMEM medium (+P/S), and NCI-H82 cell was cultured in 10% fetal bovine serum-containing RPMI1640 medium (+P/S).
as §2, §4
Cell line NCI-H82 (ATCC, No. HTB-175) was cultured in 10% fetal bovine serum-containing RPMI1640 medium (+P/S).

Take `OO` [Compound H2O2]: the “Relative TMRM signal intensity, mean value” in [1] was 119%; in data set [2] it was 82%.

As for `O=C(C[n+]1ccc(NCc2ccccc2)cc1)c1cccc([N+](=O)[O-])c1` [AB24852], the IC50 in the data set on MIA PaCa-2 was 700 nM; in the data set on SU-DHL-2, 300 nM; with SF-126 it was above 50 µM; in the data set on SW48 (72 h, SW48, 3 days of culture, Table 5, read-out: IC50 SW48), 720 nM; in the data set on SW48 (SW48, intestine cancer, Table 2, read-out: IC50) it was 700 nM; in the data set on MDA-MB-453 (72 h, MDA-MB-453, 3 days of culture, Table 5, read-out: IC50 MDA-MB-453), 220 nM. For the same compound, the IC50 with MDA-MB-453 (MDA-MB-453, breast cancer, Table 2, read-out: IC50) is 200 nM; in the data set with 786-O, above 50 µM; in the data set on 22RV1, 2300 nM; in the data set on G-401 (72 h, G-401, 3 days of culture, Table 5, read-out: IC50 G-401) it was 1020 nM; in the data set on G-401 (G-401, renal carcinoma, Table 2, read-out: IC50), 1000 nM; with NCI-H1048, 1100 nM. In addition, the IC50 was above 50 µM with GB-1; 1300 nM in the data set on A-375; above 50 µM in the data set with CFPAC-1; 800 nM in the data set on OCI-AML-4; 1700 nM in the data set on SNU-398; 1460 nM with NCI-H82 cell (72 h, NCI-H82, 3 days of culture, Table 5, read-out: IC50 NCI-H82). Moreover, the IC50 with NCI-H82 cell (NCI-H82 cell, Table 1, read-out: IC50) was 1460 nM. Moreover, the half-life at 1 µM in data set [3] was determined as 107 min.
